ChEMBL document CHEMBL1152592, “Design, synthesis and biological evaluations of novel 7-[3-(1-aminocycloalkyl)pyrrolidin-1-yl]-6-desfluoro-8-methoxyquinolones with potent antibacterial activity against multi-drug resistant Gram-positive bacteria” (Bioorg Med Chem, 2009)
Converted amounts (≈) assume the structure as drawn.

Legend:
[1] = AUC (0 to 6 hrs) in Crj:CD rat kidney at 20 mg/kg, iv; assay type: ADME, organism-based; parameters: time < 6 hr, dose 20 mg/kg, route intravenous
[2] = AUC (0 to 6 hrs) in Crj:CD rat lung at 20 mg/kg, iv; assay type: ADME, organism-based; parameters: time < 6 hr, dose 20 mg/kg, route intravenous
[3] = Ratio of AUC (0 to 6 hrs) liver to serum in Crj:CD rat […] at 20 mg/kg, iv; assay type: ADME, organism-based; parameters: dose 20 mg/kg, route intravenous
[4] = Ratio of AUC (0 to 6 hrs) kidney to serum in Crj:CD rat […] at 20 mg/kg, iv; assay type: ADME, organism-based; parameters: dose 20 mg/kg, route intravenous
[5] = Ratio of AUC (0 to 6 hrs) lung to serum in Crj:CD rat lung at 20 mg/kg, iv; assay type: ADME, organism-based; parameters: dose 20 mg/kg, route intravenous
[6] = Cmax in cynomolgus monkey serum at 20 mg/kg, po; assay type: ADME, organism-based, Macaca fascicularis; parameters: dose 20 mg/kg, route oral
[7] = Cmax in cynomolgus monkey serum at 20 mg/kg, iv; assay type: ADME, organism-based, Macaca fascicularis; parameters: dose 20 mg/kg, route intravenous
[8] = Half life in cynomolgus monkey serum at 20 mg/kg, po; assay type: ADME, organism-based, Macaca fascicularis; parameters: dose 20 mg/kg, route oral
[9] = Half life in cynomolgus monkey serum at 20 mg/kg, iv; assay type: ADME, organism-based, Macaca fascicularis; parameters: dose 20 mg/kg, route intravenous
[10] = AUC (0 to 6 hrs) in cynomolgus monkey serum at 20 mg/kg, po; assay type: ADME, organism-based, Macaca fascicularis, Plasma; parameters: time < 6 hr, dose 20 mg/kg, route oral
[11] = AUC (0 to 6 hrs) in cynomolgus monkey serum at 20 mg/kg, iv; assay type: ADME, organism-based, Macaca fascicularis, Plasma; parameters: time < 6 hr, dose 20 mg/kg, route intravenous
[12] = Oral bioavailability in cynomolgus monkey serum at 20 mg/kg; assay type: ADME, organism-based, Macaca fascicularis
Staphylococcus aureus [13] = test: Antibacterial activity against Staphylococcus aureus FDA 209-P after 18 hrs by twofold microbroth dilution method; assay type: functional
[14] = test system: Staphylococcus epidermidis; test: Antibacterial activity against Staphylococcus epidermidis 56500 after 18 hrs by twofold microbroth dilution method; assay type: functional; conditions: Staphylococcus epidermidis, 56500, 18 h
Streptococcus pneumoniae [15] = test: Antibacterial activity against Streptococcus pneumoniae J-24 after 18 hrs by twofold microbroth dilution method; assay type: functional; conditions: J-24, 18 h
Streptococcus pyogenes = test: Antibacterial activity against Streptococcus pyogenes G-36 after 18 hrs by twofold microbroth dilution method; assay type: functional; conditions: G-36, 18 h
Streptococcus mitis = test: Antibacterial activity against Streptococcus mitis IID685 after 18 hrs by twofold microbroth dilution method; assay type: functional; conditions: IID685, 18 h
Enterococcus faecalis [16] = test: Antibacterial activity against Enterococcus faecalis ATCC 19433 after 18 hrs by twofold microbroth dilution method; assay type: functional; conditions: ATCC19433, 18 h
Escherichia coli = test: Antibacterial activity against Escherichia coli NIHJ after 18 hrs by twofold microbroth dilution method; assay type: functional
Klebsiella pneumoniae = test: Antibacterial activity against Klebsiella pneumoniae type 2 after 18 hrs by twofold microbroth dilution method; assay type: functional; conditions: type 2, 18 h
Pseudomonas aeruginosa = test: Antibacterial activity against Pseudomonas aeruginosa PAO1 after 18 hrs by twofold microbroth dilution method; assay type: functional; conditions: PAO1, 18 h
Mus musculus [17] = test: Toxicity in Slc:ddY mouse at 100 mg/kg, iv; assay type: organism-based; parameters: dose 100 mg/kg, route intravenous; conditions: in vivo
Mus musculus [18] = test: Toxicity in Slc:ddY mouse assessed as micronucleated reticulocyte in blood at 150 mg/kg, iv after 48 hrs of treatment by fluorescence microscopy; assay type: organism-based; parameters: dose 150 mg/kg, route intravenous; conditions: in vivo
[19] = Aqueous […] of the compound; assay type: physicochemical; conditions: aqueous (not further specified)
Staphylococcus aureus [20] = test: Antibacterial activity against levofloxacin, methicillin-resistant Staphylococcus aureus after 18 hrs by twofold microbroth dilution method; assay type: functional
Staphylococcus aureus [21] = test: Antibacterial activity against ciprofloxacin, methicillin-resistant Staphylococcus aureus after 18 hrs by twofold microbroth dilution method; assay type: functional
Streptococcus pneumoniae [22] = test: Antibacterial activity against penicillin-intermediate resistant Streptococcus pneumoniae after 18 hrs by twofold microbroth dilution method; assay type: functional
Enterococcus faecalis [23] = test: Antibacterial activity against vancomycin-resistant Enterococcus faecalis after 18 hrs by twofold microbroth dilution method; assay type: functional
Enterococcus faecium = test: Antibacterial activity against vancomycin-resistant Enterococcus faecium after 18 hrs by twofold microbroth dilution method; assay type: functional
[24] = Inhibition of Staphylococcus aureus wild type DNA topoisomerase 4
[25] = Inhibition of Staphylococcus aureus DNA topoisomerase 4 Ser80Phe mutant
Staphylococcus aureus [26] = test: Selectivity ratio of IC50 for Staphylococcus aureus DNA topoisomerase 4 Ser80Phe mutant to IC50 for Staphylococcus aureus wild type DNA topoisomerase 4
DNA gyrase = DNA gyrase (Staphylococcus aureus, UniProt P0A0K8+P20831); test: Inhibition of Staphylococcus aureus wild type DNA gyrase; assay type: protein-complex assay
DNA gyrase subunit A = DNA gyrase subunit A (Staphylococcus aureus, UniProt P20831, S84L); test: Inhibition of Staphylococcus aureus DNA gyrase Ser84Leu mutant
Staphylococcus aureus [27] = test: Selectivity ratio of IC50 for Staphylococcus aureus DNA gyrase Ser84Leu mutant to IC50 for Staphylococcus aureus wild type DNA gyrase
[28] = Cmax in Crj:CD rat serum at 20 mg/kg, po; assay type: ADME, organism-based; parameters: dose 20 mg/kg, route oral
[29] = Half life in Crj:CD rat serum at 20 mg/kg, po; assay type: ADME, organism-based; parameters: dose 20 mg/kg, route oral
[30] = AUC (0 to 6hrs) in Crj:CD rat serum at 20 mg/kg, po; assay type: ADME, organism-based; parameters: time < 6 hr, dose 20 mg/kg, route oral
[31] = Oral bioavailability in Crj:CD rat serum at 20 mg/kg; assay type: ADME, organism-based
[32] = Cmin in Crj:CD rat serum at 20 mg/kg, iv after 5 mins; assay type: ADME, organism-based; parameters: dose 20 mg/kg, route intravenous; conditions: read-out: Cmin
[33] = Cmin in Crj:CD rat liver at 20 mg/kg, iv after 5 mins; assay type: ADME, organism-based; parameters: dose 20 mg/kg, route intravenous; conditions: read-out: Cmin
[34] = Cmin in Crj:CD rat kidney at 20 mg/kg, iv after 5 mins; assay type: ADME, organism-based; parameters: dose 20 mg/kg, route intravenous; conditions: read-out: Cmin
[35] = Cmin in Crj:CD rat lung at 20 mg/kg, iv after 5 mins; assay type: ADME, organism-based; parameters: dose 20 mg/kg, route intravenous; conditions: read-out: Cmin
[36] = Half life in Crj:CD rat serum at 20 mg/kg, iv; assay type: ADME, organism-based; parameters: dose 20 mg/kg, route intravenous
[37] = Half life in Crj:CD rat liver at 20 mg/kg, iv; assay type: ADME, organism-based; parameters: dose 20 mg/kg, route intravenous
[38] = Half life in Crj:CD rat kidney at 20 mg/kg, iv; assay type: ADME, organism-based; parameters: dose 20 mg/kg, route intravenous
[39] = Half life in Crj:CD rat lung at 20 mg/kg, iv; assay type: ADME, organism-based; parameters: dose 20 mg/kg, route intravenous
[40] = AUC (0 to 6 hrs) in Crj:CD rat serum at 20 mg/kg, iv; assay type: ADME, organism-based; parameters: time < 6 hr, dose 20 mg/kg, route intravenous
[41] = AUC (0 to 6 hrs) in Crj:CD rat liver at 20 mg/kg, iv; assay type: ADME, organism-based; parameters: time < 6 hr, dose 20 mg/kg, route intravenous

## COc1c(N2CC[C@@H](C3(N)CC3)C2)ccc2c(=O)c(C(=O)O)cn([C@@H]3C[C@@H]3F)c12
[1]
  AUC(0-t) at 6 h: 64400 ng·h/mL
[2]
  AUC(0-t) at 6 h: 45500 ng·h/mL
[3]
  Kp: 4.6
[4]
  Kp: 4.4
[5]
  Kp: 3.1
[6]
  Cmax: 3700 ng/mL
[7]
  Cmax: 12300 ng/mL
[8]
  half-life: 6 h
[9]
  half-life: 4.4 h
[10]
  AUC(0-t) at 6 h: 37500 ng·h/mL
[11]
  AUC(0-t) at 6 h: 64400 ng·h/mL
[12]
  bioavailability: 58.2%
Staphylococcus aureus [13]
  MIC: ≤ 0.003 µg/mL
[14]
  MIC: 0.006 µg/mL (≈ 0.0149 µM)
Streptococcus pneumoniae [15]
  MIC: 0.006 µg/mL (≈ 0.0149 µM)
Streptococcus pyogenes
  MIC: 0.006 µg/mL (≈ 0.0149 µM)
Streptococcus mitis
  MIC: 0.003 µg/mL (≈ 0.00747 µM)
Enterococcus faecalis [16]
  MIC: 0.025 µg/mL (≈ 0.0623 µM)
Escherichia coli
  MIC: ≤ 0.003 µg/mL
Klebsiella pneumoniae
  MIC: 0.05 µg/mL (≈ 0.125 µM)
Pseudomonas aeruginosa
  MIC: 0.39 µg/mL (≈ 0.972 µM)
Mus musculus [17]
  Activity: Non-toxic
Mus musculus [18]
  Activity: Toxic
[19]
  solubility: 480 µg/mL (≈ 1200 µM)
Staphylococcus aureus [20]
  MIC50: 0.12 µg/mL (≈ 0.299 µM)
  MIC80: 1 µg/mL (≈ 2.49 µM)
  MIC90: 1 µg/mL (≈ 2.49 µM)
Staphylococcus aureus [21]
  MIC50: 0.06 µg/mL (≈ 0.149 µM)
  MIC90: 0.5 µg/mL (≈ 1.25 µM)
Streptococcus pneumoniae [22]
  MIC50: 0.03 µg/mL (≈ 0.0747 µM)
  MIC90: 0.03 µg/mL (≈ 0.0747 µM)
Enterococcus faecalis [23]
  MIC50: 0.25 µg/mL (≈ 0.623 µM)
  MIC90: 0.5 µg/mL (≈ 1.25 µM)
Enterococcus faecium
  MIC50: 0.25 µg/mL (≈ 0.623 µM)
  MIC90: 2 µg/mL (≈ 4.98 µM)
[24]
  IC50: 0.309 µg/mL (≈ 0.77 µM)
[25]
  IC50: 1.76 µg/mL (≈ 4.38 µM)
Staphylococcus aureus [26]
  Ratio IC50: 5.7
DNA gyrase
  IC50: 2.08 µM
DNA gyrase subunit A
  IC50: 19.5 µM
Staphylococcus aureus [27]
  Ratio IC50: 9.35
[28]
  Cmax: 6700 ng/mL
[29]
  half-life: 1.3 h
[30]
  AUC(0-t) at 6 h: 9800 ng·h/mL
[31]
  bioavailability: 67.4%
[32]
  concentration at 5 min: 11000 ng/mL
[33]
  concentration at 5 min: 48500 ng/mL
[34]
  concentration at 5 min: 47200 ng/mL
[35]
  concentration at 5 min: 32400 ng/mL
[36]
  half-life: 1.2 h
[37]
  half-life: 1.1 h
[38]
  half-life: 1.4 h
[39]
  half-life: 1.2 h
[40]
  AUC(0-t) at 6 h: 14500 ng·h/mL
[41]
  AUC(0-t) at 6 h: 66100 ng·h/mL
